Source: paper PMC3925890 (Advanced healthcare materials, 2012)

Legend:
VEGF [1] = target: T1, VEGF (Homo sapiens, UniProt P15692); assay type: binding; details: Fig. 1b; varying concentrations of VEGF; microspheres containing lysine modified dimers
T1 sequence (P15692 1-191 isoform P15692-4): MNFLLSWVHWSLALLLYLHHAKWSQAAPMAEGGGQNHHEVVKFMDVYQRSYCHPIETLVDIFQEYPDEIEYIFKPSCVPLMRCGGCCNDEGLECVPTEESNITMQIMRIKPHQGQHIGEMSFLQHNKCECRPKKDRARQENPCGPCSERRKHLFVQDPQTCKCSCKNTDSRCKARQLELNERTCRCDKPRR

VEGF [2] = target: T1, VEGF; assay: Release of VEGF from functionalized microspheres; details: for bound VEGF released in 24 hours: microspheres incubated in a medium containing 10% FBS; for VEGF release relative to monomer microspheres (in words) / duration of sustained VEGF release: microspheres pre-incubated in 40 ng/ml VEGF solution (Fig. 3a)
[3] = tested on: uterine artery endothelial cells (UAECs); details: 10 ng/ml VEGF-165; compared with VEGF-free condition

Substance: (EFdAdYdLdIDFNWEYPAS)2KKKC [dimerb]
- VEGF binding efficiency over a range of VEGF concentrations (in words) (VEGF [1]): consistently showed a higher VEGF binding efficiency than dimera
- bound VEGF released in 24 hours (VEGF [2]): 72 ± 2%
- VEGF release relative to monomer microspheres (in words) (VEGF [2]): released significantly more VEGF and over a longer period of time relative to microspheres containing the monomer version
- duration of sustained VEGF release (VEGF [2]): over 30 days

Substance: (EFdAdYdLdIDFNWEYPASK)2KC [dimera]
- bound VEGF released in 24 hours (VEGF [2]): 48 ± 5%
- VEGF release relative to monomer microspheres (in words) (VEGF [2]): released significantly more VEGF and over a longer period of time relative to microspheres containing the monomer version
- duration of sustained VEGF release (VEGF [2]): over 30 days
- percent of responding UAECs (in words) [3]: reduced to the same level as the VEGF-free condition
